Test results as given in US9302999B2, “Substituted triazoles as herbicides” (E. I. DU PONT DE NEMOURS AND COMPANY, priority 2012, dated 2016).

Tests used:
Format in all cases: in vivo
[1] = test system: surinam grass (Brachiaria decumbens); test: Test C pre-/postemergence: surinam grass
In short: (§1)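 Visual injury scored 0–100 (100 = complete control) against untreated controls after 13–15 greenhouse days. Surfactant-containing solvent formulations applied either to soil after sowing (loam/sand) or over 1- to 4-leaf plants, 2–18 cm tall.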

[2] = test system: deadnettle (henbit deadnettle, Lamium amplexicaule); test: Test C postemergence: deadnettle
In short: (§2)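 Visual ratings of 0 (no effect) to 100 (complete control) were made against controls 13-15 days after a postemergence spray, with plants kept in a greenhouse. Plants were 2-18 cm tall (1- to 4-leaf stage) in Redi-Earth peat/vermiculite medium at treatment.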

[3] = test system: bermudagrass (Cynodon dactylon); test: Test C pre-/postemergence: bermudagrass
In short: as §1

[4] = test system: woolly cupgrass (Eriochloa villosa); test: Test C pre-/postemergence: woolly cupgrass
In short: as §1

[5] = test system: goosegrass (Eleusine indica); test: Test C pre-/postemergence: goosegrass
In short: as §1

[6] = test system: foxtail, green (green foxtail, Setaria viridis); test: Test C pre-/postemergence: foxtail, green
In short: as §1

[7] = test system: barley (winter barley, Hordeum vulgare); test: Test C postemergence: barley
In short: as §2

[8] = test system: bromegrass, downy (downy bromegrass, Bromus tectorum); test: Test C pre-/postemergence: bromegrass, downy
In short: as §1

[9] = test system: windgrass (Apera spica-venti); test: Test C postemergence: windgrass
In short: as §2

[10] = Postemergence, 31 g ai/ha, scale 0 to 100 (0 no effect, 100 complete control)
[11] = Postemergence, 62 g ai/ha, scale 0 to 100 (0 no effect, 100 complete control)
[12] = Postemergence, 125 g ai/ha, scale 0 to 100, 0 no effect, 100 complete control
[13] = Postemergence, 250 g ai/ha, scale 0 to 100
[14] = 31 g ai/ha, scale 0 to 100 (0 no effect, 100 complete control)
[15] = 62 g ai/ha, scale 0 to 100 (0 no effect, 100 complete control)
[16] = 125 g ai/ha, scale 0 to 100, 0 no effect, 100 complete control
[17] = Preemergence, 31 g ai/ha, scale of 0 to 100, 0 is no effect, 100 is complete control
[18] = Preemergence, 62 g ai/ha, scale of 0 to 100, 0 is no effect, 100 is complete control
[19] = Preemergence, 125 g ai/ha, scale 0 to 100, 0 no effect, 100 complete control
[20] = Preemergence, 250 g ai/ha, scale 0 to 100, 0 no effect, 100 complete control

## Cc1nn(-c2ccnc(Cl)c2)nc1Cc1ccnc(C(F)(F)F)c1 [Compound 141]
[1]; [10]
  Plant response rating, Surinam Grass: 15
[1]; [11]
  Plant response rating, Surinam Grass: 15
[1]; [12]
  Plant response rating, Surinam Grass: 30
[1]; [13]
  Plant response rating, Surinam Grass: 30
[2]; [14]
  Plant response rating, Deadnettle: 100
[2]; [15]
  Plant response rating, Deadnettle: 100
[2]; [16]
  Plant response rating, Deadnettle: 100
[2]; 250 g ai/ha, scale 0 to 100
  Plant response rating, Deadnettle: 100
[3]; [10]
  Plant response rating, Bermudagrass: 15
[3]; [12]
  Plant response rating, Bermudagrass: 55
[3]; [13]
  Plant response rating, Bermudagrass: 95
[4]; [10]
  Plant response rating, Cupgrass, Woolly: 15
[4]; [11]
  Plant response rating, Cupgrass, Woolly: 20
[4]; [12]
  Plant response rating, Cupgrass, Woolly: 30
[4]; [13]
  Plant response rating, Cupgrass, Woolly: 45
[5]; [10]
  Plant response rating, Goosegrass: 35
[5]; [11]
  Plant response rating, Goosegrass: 40
[5]; [12]
  Plant response rating, Goosegrass: 50
[5]; [13]
  Plant response rating, Goosegrass: 60
[6]; [10]
  Plant response rating, Foxtail, Green: 100
[6]; [11]
  Plant response rating, Foxtail, Green: 100
[6]; [12]
  Plant response rating, Foxtail, Green: 100
[6]; [13]
  Plant response rating, Foxtail, Green: 100
[7]; [14]
  Plant response rating, Barley: 5
[7]; [15]
  Plant response rating, Barley: 10
[7]; [16]
  Plant response rating, Barley: 15
[7]; 250 g ai/ha, scale 0 to 100
  Plant response rating, Barley: 30
[8]; [10]
  Plant response rating, Bromegrass, Downy: 25
[8]; [11]
  Plant response rating, Bromegrass, Downy: 30
[8]; [12]
  Plant response rating, Bromegrass, Downy: 30
[8]; [13]
  Plant response rating, Bromegrass, Downy: 45
[9]; [14]
  Plant response rating, Windgrass: 50
[9]; [15]
  Plant response rating, Windgrass: 50
[9]; [16]
  Plant response rating, Windgrass: 55
[9]; 250 g ai/ha, scale 0 to 100
  Plant response rating, Windgrass: 60

## Cc1nn(-c2ccc(C(F)(F)F)c(F)c2)nc1Oc1ccnc(C(F)(F)F)c1 [Compound 148]
[1]; [10]
  Plant response rating, Surinam Grass: 20
[1]; [11]
  Plant response rating, Surinam Grass: 20
[1]; [12]
  Plant response rating, Surinam Grass: 25
[1]; [13]
  Plant response rating, Surinam Grass: 30
[1]; [17]
  Plant response rating, Surinam Grass: 60
[1]; [18]
  Plant response rating, Surinam Grass: 75
[1]; [19]
  Plant response rating, Surinam Grass: 75
[1]; [20]
  Plant response rating, Surinam Grass: 100
[2]; [14]
  Plant response rating, Deadnettle: 95
[2]; [15]
  Plant response rating, Deadnettle: 95
[2]; [16]
  Plant response rating, Deadnettle: 100
[2]; 250 g ai/ha, scale 0 to 100
  Plant response rating, Deadnettle: 100
[3]; [10]
  Plant response rating, Bermudagrass: 10
[3]; [11]
  Plant response rating, Bermudagrass: 30
[3]; [12]
  Plant response rating, Bermudagrass: 50
[3]; [13]
  Plant response rating, Bermudagrass: 55
[3]; [17]
  Plant response rating, Bermudagrass: 98
[3]; [18]
  Plant response rating, Bermudagrass: 100
[3]; [19]
  Plant response rating, Bermudagrass: 100
[3]; [20]
  Plant response rating, Bermudagrass: 100
[4]; [10]
  Plant response rating, Cupgrass, Woolly: 55
[4]; [11]
  Plant response rating, Cupgrass, Woolly: 55
[4]; [12]
  Plant response rating, Cupgrass, Woolly: 65
[4]; [13]
  Plant response rating, Cupgrass, Woolly: 75
[4]; [17]
  Plant response rating, Cupgrass, Woolly: 50
[4]; [18]
  Plant response rating, Cupgrass, Woolly: 90
[4]; [19]
  Plant response rating, Cupgrass, Woolly: 95
[4]; [20]
  Plant response rating, Cupgrass, Woolly: 98
[5]; [11]
  Plant response rating, Goosegrass: 15
[5]; [12]
  Plant response rating, Goosegrass: 25
[5]; [13]
  Plant response rating, Goosegrass: 40
[5]; [17]
  Plant response rating, Goosegrass: 90
[5]; [18]
  Plant response rating, Goosegrass: 95
[5]; [19]
  Plant response rating, Goosegrass: 98
[5]; [20]
  Plant response rating, Goosegrass: 100
[6]; [10]
  Plant response rating, Foxtail, Green: 80
[6]; [11]
  Plant response rating, Foxtail, Green: 98
[6]; [12]
  Plant response rating, Foxtail, Green: 100
[6]; [13]
  Plant response rating, Foxtail, Green: 100
[6]; [17]
  Plant response rating, Foxtail, Green: 95
[6]; [18]
  Plant response rating, Foxtail, Green: 95
[6]; [19]
  Plant response rating, Foxtail, Green: 95
[6]; [20]
  Plant response rating, Foxtail, Green: 95
[7]; [14]
  Plant response rating, Barley: 35
[7]; [15]
  Plant response rating, Barley: 35
[7]; [16]
  Plant response rating, Barley: 40
[7]; 250 g ai/ha, scale 0 to 100
  Plant response rating, Barley: 45
[8]; [10]
  Plant response rating, Bromegrass, Downy: 45
[8]; [11]
  Plant response rating, Bromegrass, Downy: 55
[8]; [12]
  Plant response rating, Bromegrass, Downy: 60
[8]; [13]
  Plant response rating, Bromegrass, Downy: 65
[8]; [17]
  Plant response rating, Bromegrass, Downy: 5
[8]; [18]
  Plant response rating, Bromegrass, Downy: 40
[8]; [19]
  Plant response rating, Bromegrass, Downy: 50
[8]; [20]
  Plant response rating, Bromegrass, Downy: 80
[9]; [14]
  Plant response rating, Windgrass: 60
[9]; [15]
  Plant response rating, Windgrass: 80
[9]; [16]
  Plant response rating, Windgrass: 98
[9]; 250 g ai/ha, scale 0 to 100
  Plant response rating, Windgrass: 100
